The test system of data set [1] is Staphylococcus aureus. As to the kind of experiment: Antibacterial activity against methicillin-resistant Staphylococcus aureus ATCC BAA-41 assessed as growth inhibition at 0.125 mg/m by microbroth dilution method relative to control. Format: functional. (Broth dilution looks for growth in wells or tubes with falling amounts of substance.)
Data set [2] concerns Staphylococcus aureus. As to the kind of experiment: Antibacterial activity against Staphylococcus aureus ATCC 25923 by microbroth dilution method. Format: functional, organism-based.
The subject of data set [3] is Staphylococcus aureus. The experiment in a line: Antibacterial activity against methicillin-resistant Staphylococcus aureus ATCC BAA-41 by microbroth dilution method. Format: functional, organism-based.
Data set [4] relates to Pseudomonas aeruginosa. The experiment in a line: Antibacterial activity against Pseudomonas aeruginosa ATCC 15442 by microbroth dilution method. Format: functional, organism-based.
Data set [5] has as its system HCT-116. The experiment in a line: Cytotoxicity against human HCT116 cells assessed as reduction in cell viability by MTT assay. Format: functional, cell-based. For orientation: Formazan colour is commonly taken as a measure of viable cells.
Data set [6] relates to Staphylococcus aureus. As to the kind of experiment: Antibacterial activity against multi-resistant Staphylococcus aureus ATCC BAA-44 by microbroth dilution method. Format: functional, organism-based.
Data set [7] in a line: Antioxidant activity assessed as DPPH radical scavenging activity at > 50 uM and measure every 10 mins for 30 mins subsequently measured every 30 mins for 4 hrs by spectrophotometric method. Format: functional. For orientation: The DPPH test is a chemical assay of radical scavenging.
The nature of data set [8]: Metal chelating activity of the compound assessed as Fe2+-compound complex formation by measuring absorbance at > 50 uM in presence of ferrozine by spectrophotometric method.
A short description of data set [9]: Stability of compound in methanol. Format: physicochemical.
The subject of data set [10] is Staphylococcus aureus. The experiment in a line: Antibacterial activity against Staphylococcus aureus ATCC 25923 assessed as growth inhibition at 0.125 mg/m by microbroth dilution method relative to control. Format: functional.
For data set [11], the system named is Pseudomonas aeruginosa. The experiment in a line: Antibacterial activity against Pseudomonas aeruginosa ATCC 15442 assessed as growth inhibition at 0.125 mg/ml by microbroth dilution method relative to control. Conditions: read-out: GI. Format: functional.
For data set [12], the system named is HCT-116. As to the kind of experiment: Cytotoxicity against human HCT116 cells assessed as assessed as growth inhibition at 200 uM by MTT assay relative to control. Conditions: read-out: GI. Format: functional.

Usually IC50 stands for the point on the concentration scale where inhibition reaches its midpoint.

Active and inactive are the calls of the source. The rule behind the calls is not given here. Where only a bound is given, the exact number is not on record here.

As to `CN[C@H](CC(C)C)C(=O)N[C@H]1C(=O)N[C@@H](CC(N)=O)C(=O)N[C@H]2C(=O)N[C@H]3C(=O)N[C@H](C(=O)N[C@H](C(=O)O)c4cc(O)cc(O)c4-c4cc3ccc4O)[C@H](O)c3ccc(c(Cl)c3)Oc3cc2cc(c3O[C@@H]2O[C@H](CO)[C@@H](O)[C@H](O)[C@H]2O[C@H]2C[C@](C)(N)[C@H](O)[C@H](C)O2)Oc2ccc(cc2Cl)[C@H]1O` [VANCOMYCIN], the “growth inhibition (GI)” value in data set [1] was 100%.

For `COc1cc(O)cc(CC(C)=O)c1C[C@@H](C)C(=O)[C@@H](C)C(=O)/C(C)=C/C(C)=C/[C@H](C)[C@H](C)O`, the outcome in [2], in data set [3], in data set [4], in data set [5], in [6] and in data set [7] was inactive. Further, the result in data set [8] was inactive.

On to `C=C[C@]1(C)C=C2C(=O)[C@@]3(O)OC(=O)[C@@]4(CCCC(C)(C)[C@H]34)[C@@]2(O)CC1` [SPHAEROPSIDIN A], for which the IC50 was 32.6 µM in data set [2], 35.3 µM in data set [3], greater than 100 µM in data set [4] and 4.9 µM in [5]. In addition, in data set [9], the Stability result is listed as “Stable”.

Turning to `CC(=O)Cc1cc(O)cc2c1CC(C)C(O)(C(C)C(=O)/C(C)=C/C(C)=C/C(C)C(C)O)O2` (configuration not stated), the outcome in [2], in data set [3], in data set [4], in data set [5], in data set [6] and in [7] was inactive. In data set [8], the outcome was inactive.

Turning to `C=C[C@]1(C)C=C2C(=O)[C@]3(O)OC(=O)[C@@]4(CCCC(C)(C)[C@@H]43)[C@H]2CC1`, the IC50 in data set [2] was 71.6 µM; in data set [3] it was 77.8 µM; in [4], greater than 100 µM; in [5], 32.7 µM. The Stability result in data set [9] is recorded as “Unstable”.

On to `CC(=O)Cc1cc(O)cc(O)c1CC(C)C(=O)C(C)C(=O)/C(C)=C/C(C)=C/C(C)C(C)O` (configuration not stated), for which the outcome in data set [2], in [3], in [4], in [5], in data set [6] and in data set [7] was inactive. Besides, the result in data set [8] was inactive.

Regarding `NC[C@H]1O[C@H](O[C@H]2[C@H](O)[C@@H](O[C@H]3O[C@H](CO)[C@@H](O)[C@H](N)[C@H]3O)[C@H](N)C[C@@H]2N)[C@H](O)[C@@H](O)[C@@H]1O` [KANAMYCIN], the “growth inhibition (GI)” value in [10] is 100%. In addition, the inhibition of growth at 125 µg/mL in [11] came to 100%.

For the compound `COc1cc(O)cc(CC(C)=O)c1C[C@@H](C)C(=O)[C@H](C)C(=O)/C(C)=C/C(C)=C/[C@H](C)[C@H](C)O`, the result in data set [2], in data set [3], in data set [4], in data set [5], in data set [6] and in data set [7] was inactive. The result in data set [8] was inactive.

With `COc1cc([C@@H]2c3cc4c(cc3[C@@H](O[C@@H]3O[C@@H]5CO[C@@H](C)O[C@H]5[C@H](O)[C@H]3O)[C@H]3COC(=O)[C@H]23)OCO4)cc(OC)c1O` [ETOPOSIDE], the inhibition of growth at 200 µM in data set [12] was 82.8%.

Values taken from ChEMBL document CHEMBL4414597, “Polyketides from Marine-Derived Aspergillus porosus: Challenges and Opportunities for Determining Absolute Configuration” (J Nat Prod, 2019).
